Test results from ChEMBL document CHEMBL1255193, “Structure-based optimization of pyrazolo-pyrimidine and -pyridine inhibitors of PI3-kinase” (Bioorg Med Chem Lett, 2010).
Converted amounts (≈) assume the structure as drawn. One block for each compound: values may come before it.

Key:
[1] = biological target: Phosphatidylinositol 4,5-bisphosphate 3-kinase catalytic subunit alpha isoform (Homo sapiens, UniProt P42336); assay: Inhibition of PI3Kalpha
MCF7 = assay: Cytotoxicity against human MCF7 cells; format: functional, cell-based
[2] = Plasma clearance in rat; format: ADME, organism-based
[3] = Solubility of the compound at pH 6.5; format: physicochemical; conditions: buffer
[4] = Apparent permeability of the compound from apical to basolateral direction in MDCKI cells; format: ADME, cell-based, Canis lupus familiaris; conditions: dog, MDCK
MDR1 = assay: Apparent permeability of the compound from apical to basolateral direction in MDCKI cells expressing MDR1; format: ADME, cell-based, Canis lupus familiaris; conditions: dog, MDCK-MDR1
Bcrp1 [5] = assay: Apparent permeability of the compound from apical to basolateral direction in MDCK2 cells expressing Bcrp1; format: ADME, cell-based, Canis lupus familiaris, MDCK-II; conditions: dog
[6] = Oral bioavailability in rat at 5 mg/kg; format: ADME, organism-based; conditions: in vivo
Bcrp1 [7] = assay: Apparent permeability of the compound from apical to basolateral direction in MDCK2 cells expressing Bcrp1 in presence of fumitremorgin C; format: ADME, cell-based, Canis lupus familiaris, MDCK-II; conditions: dog, with fumitremorgin C
[8] = Ratio of permeability from […] side in MDCK2 cells expressing Bcrp1 in presence of fumitremorgin C; format: ADME, cell-based, Canis lupus familiaris; conditions: dog, mdck-ii
[9] = Ratio of permeability from basolateral to apical over apical to basolateral side in MDCKI cells; conditions: dog
[10] = Ratio of permeability from basolateral to apical over apical to basolateral side in MDCKI cells expressing MDR1; conditions: dog
[11] = Ratio of permeability from basolateral to apical over apical to basolateral side in MDCK2 cells expressing Bcrp1; conditions: dog, mdck-ii
[12] = biological target: Receptor-type tyrosine-protein kinase FLT3 (Homo sapiens) (UniProt P36888); assay: Inhibition of FLT3 at 1 uM
[13] = Plasma protein binding in mouse; format: ADME, cell-free; conditions: read-out: PPB (converted)
Mus musculus [14] = assay: In vivo inhibition of PI3K in human PC3 cells xenografted athymic nude mouse assessed as reduction of phosphorylated Akt level at 50 mg/kg, po after 1 hr; format: functional; conditions: PC-3, 1 h
Mus musculus [15] = assay: In vivo inhibition of PI3K in human PC3 cells xenografted athymic nude mouse assessed as reduction of phosphorylated Akt level at 50 mg/kg, po after 6 hrs; format: functional; conditions: PC-3, 6 h
Mus musculus [16] = assay: In vivo inhibition of PI3K in human PC3 cells xenografted athymic nude mouse assessed as reduction of phosphorylated PRAS40 level at 50 mg/kg, po after 1 hr; format: functional; conditions: PC-3, 1 h
Mus musculus [17] = assay: In vivo inhibition of PI3K in human PC3 cells xenografted athymic nude mouse assessed as reduction of phosphorylated PRAS40 level at 50 mg/kg, po after 6 hrs; format: functional; conditions: PC-3, 6 h
Mus musculus [18] = assay: In vivo inhibition of PI3K in human PC3 cells xenografted athymic nude mouse assessed as reduction of phosphorylated S6RP level at 50 mg/kg, po after 1 hr; format: functional; conditions: PC-3, 1 h
Mus musculus [19] = assay: In vivo inhibition of PI3K in human PC3 cells xenografted athymic nude mouse assessed as reduction of phosphorylated S6RP level at 50 mg/kg, po after 6 hrs; format: functional; conditions: PC-3, 6 h
[20] = biological target: DNA-dependent protein kinase catalytic subunit (Homo sapiens, UniProt P78527); assay: Inhibition of DNA-PK
[21] = biological target: Serine/threonine-protein kinase mTOR (Homo sapiens, UniProt P42345); assay: Inhibition of mTOR; conditions: read-out: Ki(app)
[22] = Plasma clearance in human PC3 cells xenografted athymic nude mouse; format: ADME, organism-based, PC-3
[23] = Oral bioavailability in human PC3 cells xenografted athymic nude mouse at 5 mg/kg; format: ADME, organism-based, PC-3; conditions: in vivo
[24] = Volume of distribution at steady state in human PC3 cells xenografted athymic nude mouse; format: ADME, organism-based, PC-3; conditions: in vivo, read-out: Vdss
[25] = Inhibition of human Cytochrome P450; format: ADME
[26] = Metabolic stability in human hepatocytes assessed as compound remaining after 3 hrs; format: ADME, cell-based, Hepatocyte; conditions: read-out: Stability
[27] = Metabolic stability in mouse hepatocytes assessed as compound remaining after 3 hrs; format: ADME, cell-based, Hepatocyte; conditions: read-out: Stability

Phosphatidylinositol 4,5-bisphosphate 3-kinase catalytic subunit alpha isoform, sequence (P42336 whole entry, canonical isoform): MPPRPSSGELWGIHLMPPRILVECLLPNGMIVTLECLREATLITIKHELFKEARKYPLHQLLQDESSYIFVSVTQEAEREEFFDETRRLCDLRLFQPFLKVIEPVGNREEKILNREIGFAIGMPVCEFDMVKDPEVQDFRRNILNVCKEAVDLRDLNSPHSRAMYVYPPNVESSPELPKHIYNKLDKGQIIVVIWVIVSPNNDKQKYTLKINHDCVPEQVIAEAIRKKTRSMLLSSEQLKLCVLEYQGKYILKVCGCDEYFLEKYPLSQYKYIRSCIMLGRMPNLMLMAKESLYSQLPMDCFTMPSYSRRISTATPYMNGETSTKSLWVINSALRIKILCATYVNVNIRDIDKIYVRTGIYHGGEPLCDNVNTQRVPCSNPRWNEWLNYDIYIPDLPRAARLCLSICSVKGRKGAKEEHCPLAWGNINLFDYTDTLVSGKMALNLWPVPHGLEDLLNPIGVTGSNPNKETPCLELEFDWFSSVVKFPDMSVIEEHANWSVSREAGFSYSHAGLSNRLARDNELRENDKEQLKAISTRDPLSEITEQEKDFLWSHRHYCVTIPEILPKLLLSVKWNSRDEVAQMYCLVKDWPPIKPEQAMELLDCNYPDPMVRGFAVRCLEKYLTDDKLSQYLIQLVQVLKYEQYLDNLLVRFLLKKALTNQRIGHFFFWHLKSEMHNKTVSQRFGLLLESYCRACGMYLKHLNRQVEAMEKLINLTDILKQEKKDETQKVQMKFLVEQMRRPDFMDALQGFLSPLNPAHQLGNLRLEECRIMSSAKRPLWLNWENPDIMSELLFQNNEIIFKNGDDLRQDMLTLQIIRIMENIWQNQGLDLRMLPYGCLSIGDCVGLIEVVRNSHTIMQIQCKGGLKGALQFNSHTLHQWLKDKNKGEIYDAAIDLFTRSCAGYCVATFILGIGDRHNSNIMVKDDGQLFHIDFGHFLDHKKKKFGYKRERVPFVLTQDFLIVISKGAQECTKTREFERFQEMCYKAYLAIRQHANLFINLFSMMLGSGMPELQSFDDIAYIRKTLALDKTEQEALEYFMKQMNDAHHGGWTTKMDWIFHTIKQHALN
Receptor-type tyrosine-protein kinase FLT3 (Homo sapiens), sequence (P36888 whole entry): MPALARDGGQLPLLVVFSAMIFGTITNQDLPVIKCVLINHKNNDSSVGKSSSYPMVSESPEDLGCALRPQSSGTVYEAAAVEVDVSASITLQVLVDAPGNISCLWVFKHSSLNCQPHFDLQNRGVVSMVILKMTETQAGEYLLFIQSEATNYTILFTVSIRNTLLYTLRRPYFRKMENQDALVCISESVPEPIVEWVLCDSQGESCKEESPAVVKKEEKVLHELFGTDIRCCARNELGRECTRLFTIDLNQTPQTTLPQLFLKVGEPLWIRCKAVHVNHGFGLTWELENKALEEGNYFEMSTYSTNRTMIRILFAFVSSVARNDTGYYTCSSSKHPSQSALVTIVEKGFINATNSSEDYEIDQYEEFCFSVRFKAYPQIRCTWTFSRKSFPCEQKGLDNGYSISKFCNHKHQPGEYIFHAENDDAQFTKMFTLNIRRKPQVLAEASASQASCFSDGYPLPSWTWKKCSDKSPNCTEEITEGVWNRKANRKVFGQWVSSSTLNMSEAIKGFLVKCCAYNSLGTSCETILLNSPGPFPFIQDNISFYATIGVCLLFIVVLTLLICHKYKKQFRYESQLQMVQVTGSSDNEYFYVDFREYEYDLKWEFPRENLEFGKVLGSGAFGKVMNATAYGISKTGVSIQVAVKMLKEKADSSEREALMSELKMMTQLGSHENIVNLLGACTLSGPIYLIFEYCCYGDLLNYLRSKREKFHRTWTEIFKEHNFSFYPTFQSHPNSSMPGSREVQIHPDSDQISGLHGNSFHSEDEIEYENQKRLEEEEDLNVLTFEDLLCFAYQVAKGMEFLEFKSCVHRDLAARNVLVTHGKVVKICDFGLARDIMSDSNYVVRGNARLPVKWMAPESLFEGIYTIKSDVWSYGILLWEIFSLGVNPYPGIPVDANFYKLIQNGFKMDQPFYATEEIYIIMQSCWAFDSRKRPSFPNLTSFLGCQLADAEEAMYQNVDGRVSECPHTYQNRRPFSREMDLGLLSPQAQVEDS

IC50 [1]: 0.162 µM
SMILES: COc1cccc(Nc2nc(N3CCOCC3)nc3c2cnn3C)c1

IC50 [1]: 0.134 µM
SMILES: COc1cccc(Nc2nc(-c3cccc(OC)c3)nc3c2cnn3C)c1

IC50 [1]: 0.072 µM
SMILES: COc1cccc(Nc2nc(-c3cccc(C(N)=O)c3)nc3c2cnn3C)c1

IC50 [1]: 0.0083 µM
clearance [2]: 10.6 L/h/kg
SMILES: CN1CCC(Nc2nc(-c3cccc4[nH]ncc34)nc3c2cnn3C)CC1
EC50 (MCF7): 1.5 µM

IC50 [1]: 0.0014 µM
clearance [2]: 1.2 L/h/kg
solubility [3]: 0.0071 mg/mL (≈ 16.9 µM)
Papp A→B [4]: 3.7 nm/s
Papp A→B (MDR1): 1.3 nm/s
Papp A→B (Bcrp1 [5]): 0.3 nm/s
bioavailability [6]: 0%
Papp A→B (Bcrp1 [7]): 6.3 nm/s
Ratio [8]: 17.6
Ratio [9]: 6.7
Ratio [10]: 79
Ratio [11]: 311
SMILES: Cn1ncc2c(Nc3ccc(S(C)(=O)=O)cc3)nc(-c3cccc4[nH]ncc34)nc21
EC50 (MCF7): 0.087 µM

IC50 [1]: 0.016 µM
SMILES: COc1cccc(Nc2nc(-c3cnc(N)nc3)nc3c2cnn3C)c1

IC50 [1]: 0.003 µM
clearance [2]: 0.12 L/h/kg
solubility [3]: 0.016 mg/mL (≈ 38.1 µM)
Papp A→B [4]: 25 nm/s
Papp A→B (MDR1): 8 nm/s
Papp A→B (Bcrp1 [5]): 0.5 nm/s
bioavailability [6]: 29%
Ratio [9]: 0.7
Ratio [10]: 4.2
Ratio [11]: 55.1
SMILES: Cn1ncc2c(Oc3ccc(S(C)(=O)=O)cc3)nc(-c3cccc4[nH]ncc34)nc21

clearance [2]: 8.34 L/h/kg
SMILES: Cn1ncc2c(NCCCS(C)(=O)=O)nc(-c3cccc4n[nH]cc34)nc21
EC50 (MCF7): 0.403 µM

IC50 [1]: 0.0017 µM
SMILES: COc1cccc(Nc2nc(-c3cccc4onc(C)c34)nc3c2cnn3C)c1

IC50 [1]: 0.37 µM
SMILES: COc1cccc(Nc2nc(N3CC(C)OC(C)C3)nc3c2cnn3C)c1 (stereo not drawn)

IC50 [1]: 0.0011 µM
clearance [2]: 6.18 L/h/kg
SMILES: Cn1ncc2c(NCC(C)(C)CO)nc(-c3cccc4[nH]ncc34)nc21

IC50 [1]: 0.43 µM
SMILES: COc1cccc(Nc2nc(N3CCC(O)CC3)nc3c2cnn3C)c1

IC50 [1]: 0.056 µM
SMILES: COc1cccc(Nc2nc(-c3cccc(S(C)(=O)=O)c3)nc3c2cnn3C)c1

clearance [2]: 0.504 L/h/kg
solubility [3]: 0.015 mg/mL (≈ 35.8 µM)
Papp A→B [4]: 139 nm/s
Papp A→B (MDR1): 12 nm/s
bioavailability [6]: 107%
inhibition [12]: 27%
fraction unbound [13]: 0.012
IC50 [20]: 1.02 µM
Ki [21]: > 10 µM
clearance [22]: 0.762 L/h/kg
bioavailability [23]: 110%
Vd [24]: 1.1 L/kg
IC50 [25]: > 20 µM
remaining at 3 h [26]: 94%
remaining at 3 h [27]: 100%
SMILES: Cn1ncc2c(Oc3ccc(S(C)(=O)=O)cc3)cc(-c3cccc4[nH]ncc34)nc21
inhibition in vivo at 50 mg/kg (Mus musculus [14]): 44%
inhibition in vivo at 50 mg/kg (Mus musculus [15]): 34%
inhibition in vivo at 50 mg/kg (Mus musculus [16]): 23%
inhibition in vivo at 50 mg/kg (Mus musculus [17]): 11%
inhibition in vivo at 50 mg/kg (Mus musculus [18]): 36%
inhibition in vivo at 50 mg/kg (Mus musculus [19]): 17%

IC50 [1]: 0.011 µM
SMILES: COc1cccc(Nc2nc(-c3cccc4[nH]nc(N)c34)nc3c2cnn3C)c1

IC50 [1]: 0.0049 µM
solubility [3]: < 0.001 mg/mL
Papp A→B [4]: 315 nm/s
Papp A→B (MDR1): 76 nm/s
Papp A→B (Bcrp1 [5]): 38 nm/s
Ratio [9]: 0.5
Ratio [10]: 3.2
Ratio [11]: 4.8
SMILES: Cn1ncc2c(-c3ccc(S(C)(=O)=O)cc3)nc(-c3cccc4[nH]ncc34)nc21

IC50 [1]: 0.029 µM
SMILES: COc1cccc(Nc2nc(-c3cccnc3)nc3c2cnn3C)c1

IC50 [1]: 0.359 µM
SMILES: COc1cccc(Nc2nc(N3CCCCC3)nc3c2cnn3C)c1

IC50 [1]: 0.0014 µM
SMILES: COc1cccc(Nc2nc(-c3cccc4[nH]ncc34)nc3c2cnn3C)c1

IC50 [1]: 0.386 µM
SMILES: COc1cccc(Nc2nc(-c3cccc(NC(C)=O)c3)nc3c2cnn3C)c1

IC50 [1]: 3.64 µM
SMILES: CNC(=O)c1cccc(-c2nc(Nc3cccc(OC)c3)c3cnn(C)c3n2)c1
